Results from patent US20220364065A1, “COMPOSITION FOR REMOVING PLURIPOTENT STEM CELLS AND METHOD OF REMOVING PLURIPOTENT STEM CELLS” (NATIONAL UNIVERSITY CORPORATION HOKKAIDO UNIVERSITY, priority 2018, published 2022).
Entries after “also recorded” stand apart in the source; their conditions may differ.

Experiments:
[1] = Side effects in treated tumor-bearing mice; assay type: in vivo; conditions: NOD/SCID mice, BRQ intraperitoneally
[2] = tested on: teratomas formed from mouse iPS cells; assay: Anti-teratoma activity in NOD/SCID mice, iPS cell-derived tumors; assay type: in vivo
Experimental: (§1) For tumors, 10-μm-thick sections were prepared and immunostained using the methods described by Kondo T. and Raff M., EMBO J. 2000; 19(9): 1998-2007, and Takanaga H, et al., Stem Cells. 2009; 27(1): 165-174. The following antibodies were used for this immunostaining.
(§2) TOCRIS) PBS solution was administered daily intraperitoneally to mice bearing subcutaneous tumors. Five days after intraperitoneal administration, the mice were sacrificed to death, and the tumors were removed and photographed for pathological analysis according to the method described in Tsukamoto Y, et al., Stem Cells. 2016; 34(8): 2016-2025.
(§3) Next, sections of these tumors were prepared, immunolabeled for the proliferation marker Ki67, pluripotent stem cell markers (Oct4 and Nanog), and differentiation markers (ATF, βIII tubulin, and SMA), and observed.

mouse neural stem cells = assay: Sox2 immunostaining, neural stem cells; assay type: cell-based; conditions: 10 μM BRQ, 24 hours
Experimental: (§4) The cells were fixed and immunostained as described in Kondo et al., Genes Dev. 2004, Vol. 18, Issue 23, pp. 2963-72. […] For the culture of mNSCs, PDL+fibronectin-coated ones were used (see Johe KK et al., Genes Dev. 1996, Vol. 10, Issue 24, pp. 3129 to 3140). For the culture of ES cells and iPS cells, gelatin-coated ones were used.
(§5) For immunostaining, the cells were first washed once with PBS, then fixed by adding 4% paraformaldehyde and incubating for 10 minutes at room temperature. The cells were replaced with PBS containing 0.3% Triton X100 and incubated for 5 minutes at room temperature, then replaced with PBS containing 0.3% Triton X100 and 10% FCS (blocking solution) and incubated for 30 minutes at room temperature. The solution was replaced with primary antibody solution diluted in blocking solution and incubated for 2 hours at room temperature. After washing three times with PBS, secondary antibody and DAPI solution diluted with blocking solution were added and incubated at room temperature for 2 hours. After washing three times with PBS, the cells were sealed with anti-fading agent (manufactured by DAKO, code number: 53023) and observed under a microscope. […] In addition, fluorescence images were acquired with an Axiolmager M1 microscope (manufactured by Carl Zeiss). […]

[3] = tested on: PA6: mouse bone marrow-derived stromal cells; assay: MTT assay, viability of PA6 cells; assay type: cell-based; conditions: 10 μM BRQ, 3 days
Experimental: (§6) One thousand cells were seeded into each well of a 96-well plate and cultured for 3 days in medium (200 μL/well) supplemented with only DMSO at a final concentration of 0.1% or in medium (200 μL/well) supplemented with each dihydroorotate dehydrogenase (DHODH) inhibitor. The medium used was the appropriate culture solution for each cell as described above.
(§7) The concentration of each DHODH inhibitor added to the medium was a 2-fold dilution series starting from 200 μM.
(§8) As a background, a well containing medium only was prepared, and as a control, a well was also prepared in which medium containing Triton X-100 (final concentration 0.2%) was added to the cells.
(§9) Then, 5 μL of MTT (5 mg/ml, manufactured by Wako) was added to each well, and the cells were incubated at 37° C. for 2 to 3 hours. Then, the medium was replaced with 100 μL of DMSO to lyse the cells, and the absorbance of these cell lysates at a wavelength of 570 nm was measured with a microplate reader (manufactured by Bio-Rad, Benchmark model). In addition, based on the obtained absorbance, the cell viability was calculated by the following formula.
(§10) Cell viability (%)=(absorbance in wells with DHODH inhibitor-absorbance in background)/(absorbance in control-absorbance in background)×100. […]

[4] = tested on: mouse neural stem cells and mouse ES cells; assay: Mixed culture of neural stem cells and ES cells, Nestin/Nanog immunostaining; assay type: cell-based; conditions: 10 μM BRQ, 3 days
Experimental: as §4
(§11) For immunostaining, the cells were first washed once with PBS, then fixed by adding 4% paraformaldehyde and incubating for 10 minutes at room temperature. The cells were replaced with PBS containing 0.3% Triton X100 and incubated for 5 minutes at room temperature, then replaced with PBS containing 0.3% Triton X100 and 10% FCS (blocking solution) and incubated for 30 minutes at room temperature. The solution was replaced with primary antibody solution diluted in blocking solution and incubated for 2 hours at room temperature. After washing three times with PBS, secondary antibody and DAPI solution diluted with blocking solution were added and incubated at room temperature for 2 hours. After washing three times with PBS, the cells were sealed with anti-fading agent (manufactured by DAKO, code number: 53023) and observed under a microscope. […] In addition, fluorescence images were acquired with an Axiolmager M1 microscope (manufactured by Carl Zeiss).
(§12) The cells were then analyzed by immunostaining as described above.

mouse ES cells = assay: Cell proliferation and cell death (BrdU uptake, Ki67, Casp3 immunostaining), ES cells; assay type: cell-based; conditions: BRQ 2 days
Experimental: as §4, §5

[5] = tested on: teratomas formed from mouse ES cells; assay: Anti-teratoma activity in NOD/SCID mice, ES cell-derived tumors; assay type: in vivo
Experimental: as §1, §2, §3

[6] = tested on: mouse neural stem cells and mouse iPS cells; assay: Mixed culture of neural stem cells and iPS cells, Nestin/Nanog immunostaining; assay type: cell-based; conditions: 10 μM BRQ, 3 days
Experimental: as §4, §11, §12

mouse astrocytes = assay: MTT assay, viability of mouse astrocytes; assay type: cell-based; conditions: 10 μM BRQ, 3 days
Experimental: as §6, §7, §8, §9
Cell viability (%)=(absorbance in wells with DHODH inhibitor-absorbance in background)/(absorbance in control-absorbance in background)×100.

mouse iPS cells = assay: Quantitative RT-PCR of Sox2, Oct4, Nanog, iPS cells; assay type: cell-based; conditions: 10 μM BRQ, 2 days
Experimental: First, total RNA was prepared from cells using the RNeasy kit (manufactured by Qiagen), and cDNA was synthesized using the Transcriptor First Strand cDNA Synthesis Kit (manufactured by Roche Applied Science).
Then, the cDNA was used as a template, and Thunderbird Cyber qPCR Mix (manufactured by TOYOBO) and Step One Plus (manufactured by Thermo Fisher Scientific) were used to perform real-time PCR. The reaction conditions were set at 95° C. for 15 seconds and 60° C. for 30 seconds for 40 cycles, and the oligonucleotide primers shown below were used to amplify each target gene.
Note that the expression level of each target gene detected in this way was normalized by the relative quantification method (delta delta Ct method) based on the expression level of 18S ribosomal RNA.

[7] = tested on: NT2: human embryonal carcinoma (EC) cells; assay: MTT assay, viability of NT2 cells; assay type: cell-based; conditions: 10 μM BRQ, 3 days
Experimental: as §6, §7, §8, §9, §10

Cc1c(-c2ccc(-c3ccccc3F)cc2)nc2ccc(F)cc2c1C(=O)O [BRQ, 6-fluoro-2-(2′-fluoro-1,1′-biphenyl-4-yl)-3-methyl-4-quinoline-sodium carboxylate]
side effects in treated mice [1]: no visible side effects
number of Oct4-positive cells and Nanog-positive cells in tumors ([2]; iPS cell-derived tumors): significantly decreased
tumor proliferation ([2]; iPS cell-derived tumors, BRQ intraperitoneally): suppressed
cells expressing differentiation markers (ATF, βIII tubulin, SMA) in tumors ([2]; iPS cell-derived tumors, BRQ- vs DMSO-treated): similarly contained in both tumors
Ki67-positive proliferating cells in tumors ([2]; iPS cell-derived tumors, compared to DMSO-treated tumors): significantly reduced
sizes of teratomas ([2]; iPS cell-derived, BRQ intraperitoneally (DMSO control 1.37 cm^3)): 0.32 cm^3
changes in proliferation/death and Sox2 expression (mouse neural stem cells): no similar changes were observed
cytotoxic activity (viability, MTT assay) [3]: no significant cytotoxic activity
ES cells (Nanog) in mixed culture ([4]; ES cell medium): lost
cytotoxicity to neural stem cells (Nestin) in mixed culture ([4]; mixed with ES cells): no obvious cytotoxicity
CASP3 activation (Casp3 immunostaining) (mouse ES cells): strongly activated
cell proliferation (BrdU uptake assay) (mouse ES cells): reduced the proliferation
number of Oct4-positive cells and Nanog-positive cells in tumors ([5]; ES cell-derived tumors): significantly decreased
tumor proliferation ([5]; ES cell-derived tumors, BRQ intraperitoneally): suppressed
cells expressing differentiation markers (ATF, βIII tubulin, SMA) in tumors ([5]; ES cell-derived tumors, BRQ- vs DMSO-treated): similarly contained in both tumors
Ki67-positive proliferating cells in tumors ([5]; ES cell-derived tumors, compared to DMSO-treated tumors): significantly reduced
sizes of teratomas ([5]; ES cell-derived, BRQ intraperitoneally (DMSO control 0.55 cm^3)): 0.12 cm^3
iPS cells (Nanog) in mixed culture ([6]; ES cell medium): lost
cytotoxicity to neural stem cells (Nestin) in mixed culture ([6]; mixed with iPS cells): no obvious cytotoxicity
cytotoxic activity / sensitivity (viability, MTT assay) (mouse astrocytes): hyposensitive; also recorded: no significant cytotoxic activity
expression levels of marker genes (Sox2, Oct4, Nanog) (mouse iPS cells): generally decreased
cytotoxic activity (viability, MTT assay) [7]: significant cytotoxic activity
